# According to US20090123397A1, “Microbiocidal compositions” (Thor Specialities (UK) Limited, priority 2005, published 2009):
# Tests used:
# Staphylococcus aureus [1] = assay: MIC / growth test of MIT and CAG mixtures in Müller-Hinton broth; assay type: cell-based, Staphylococcus aureus ATCC 6538; set-up: key to growth of the micro-organism: growth of the micro-organism took place (symbol “+”); or not (symbol “−”); settings: 72 h
# Method: (§1) For this purpose, aqueous mixtures were produced with various concentrations of 2-methylisothiazolin-3-one (MIT) and caprylyl glycol (CAG) and the activity of these mixtures were tested on the micro-organisms listed in Table VI.
# (§2) In addition to the active component(s) and water, the aqueous mixtures contained a nutrient medium, namely a Müller-Hinton broth (Manufacturer: Oxoid; product code CM405). The incubation time was 72 h at 25° C. (bacterial and yeast) or 7 days at 25° C. (mould). Each sample was incubated on an incubation shaker at 105 rpm.
# (§3) The tables also show whether growth of the micro-organism took place (symbol “+”) or not (symbol “−”).
# (§4) Tables I to V also show the minimum inhibition concentrations (MIC).
# (§5) The synergy index is calculated according to the method of F. C. Kull et al., Applied Microbiology, Vol. 9 (1961), p. 538. Here the synergy index is calculated using the following formula:
# (§6) Synergy index=Qa/QA+Qb/QB
# (§7) When this formula is used on the biocide system tested here, the quantities in the formula have the following meaning: • Qa=MIC of MIT in the preservative mixture of MIT and CAG • QA=MIC of MIT as sole ingredient • Qb=MIC of CAG in the preservative mixture of MIT and CAG • QB=MIC of CAG as sole ingredient
# (§8) When the synergy index has the value 1, this means that there is an addition of the activity of the two ingredients. When the synergy index has a value of less than 1, this means that a synergy of the two ingredients exists.
# Aspergillus niger [2] = assay: as above; assay type: cell-based, Aspergillus niger IMI 149007; set-up: key to growth of the micro-organism: growth of the micro-organism took place (symbol “+”); or not (symbol “−”); settings: 5 days
# Method: as §1
# In addition to the active component(s) and water, the aqueous mixtures contained a nutrient medium, namely a Müller-Hinton broth (Manufacturer: Oxoid; product code CM405). […] (mould). Each sample was incubated on an incubation shaker at 105 rpm.
# as §3, §4, §5, §6, §7, §8
# Candida albicans [3] = assay: as above; assay type: cell-based, Candida albicans NCPF 3179; set-up: key to growth of the micro-organism: growth of the micro-organism took place (symbol “+”); or not (symbol “−”); settings: 72 h
# Method: as §1, §2, §3, §4, §5, §6, §7, §8
# Enterococcus faecalis = assay: as above; assay type: cell-based, Enterococcus faecalis NCIMB 12756; set-up: key to growth of the micro-organism: growth of the micro-organism took place (symbol “+”); or not (symbol “−”); settings: 72 h
# Method: as §1, §2, §3, §4, §5, §6, §7, §8
# Pseudomonas aeruginosa [4] = assay: as above; assay type: cell-based, Pseudomonas aeruginosa ATCC 9027; set-up: key to growth of the micro-organism: growth of the micro-organism took place (symbol “+”); or not (symbol “−”); settings: 72 h
# Method: as §1, §2, §3, §4, §5, §6, §7, §8
# Staphylococcus aureus [5] = assay: Efficacy of C5 alkane diols vs. C8 alkane diols; assay type: cell-based; set-up: key: + = no growth inhibition; − = growth inhibition
# Method: (§9) Tables VIIIA to VIIID—Efficacy of C5 alkane diols vs. C8 alkane diols. […] Tables VIIIA to VIIID above illustrate the results of tests of the efficacy of octane diol compared to pentane diol on various organisms. These tests were carried out in a similar manner to those described above. The percentages at the top line of each table indicate the amount of diol used by weight in the preservative mixture.
# Aspergillus Niger [6] = assay: Efficacy of C5 alkane diols vs. C8 alkane diols; assay type: cell-based; set-up: key: + = no growth inhibition; − = growth inhibition
# Method: as §9
# Pseudomonas aeruginosa [7] = assay: Efficacy of C5 alkane diols vs. C8 alkane diols; assay type: cell-based; set-up: key: + = no growth inhibition; − = growth inhibition
# Method: as §9
# Candida albicans [8] = assay: Efficacy of C5 alkane diols vs. C8 alkane diols; assay type: cell-based; set-up: key: + = no growth inhibition; − = growth inhibition
# Method: as §9
smiles,measurement,setting,value
"Cn1sccc1=O [MIT, 2-methylisothiazolin-3-one]",QA (MIT): MIC of MIT as sole ingredient,Staphylococcus aureus [1],25 ppm
same,growth of the micro-organism,"Staphylococcus aureus [1]; MIT 10 ppm, CAG 0 ppm",+
same,growth of the micro-organism,"Staphylococcus aureus [1]; MIT 25 ppm, CAG 0 ppm",−
same,growth of the micro-organism,"Staphylococcus aureus [1]; MIT 37.5 ppm, CAG 0 ppm",−
same,growth of the micro-organism,"Staphylococcus aureus [1]; MIT 50 ppm, CAG 0 ppm",−
same,growth of the micro-organism,"Staphylococcus aureus [1]; MIT 75 ppm, CAG 0 ppm",−
same,QA (MIT): MIC of MIT as sole ingredient,Aspergillus niger [2],300 ppm
same,growth of the micro-organism,"Aspergillus niger [2]; MIT 10 ppm, CAG 0 ppm",+
same,growth of the micro-organism,"Aspergillus niger [2]; MIT 25 ppm, CAG 0 ppm",+
same,growth of the micro-organism,"Aspergillus niger [2]; MIT 37.5 ppm, CAG 0 ppm",+
same,growth of the micro-organism,"Aspergillus niger [2]; MIT 50 ppm, CAG 0 ppm",+
same,growth of the micro-organism,"Aspergillus niger [2]; MIT 75 ppm, CAG 0 ppm",+
same,growth of the micro-organism,"Aspergillus niger [2]; MIT 100 ppm, CAG 0 ppm",+
same,growth of the micro-organism,"Aspergillus niger [2]; MIT 200 ppm, CAG 0 ppm",+
same,growth of the micro-organism,"Aspergillus niger [2]; MIT 300 ppm, CAG 0 ppm",−
same,QA (MIT): MIC of MIT as sole ingredient,Candida albicans [3],200 ppm
same,growth of the micro-organism,"Candida albicans [3]; MIT 10 ppm, CAG 0 ppm",+
same,growth of the micro-organism,"Candida albicans [3]; MIT 25 ppm, CAG 0 ppm",+
same,growth of the micro-organism,"Candida albicans [3]; MIT 37.5 ppm, CAG 0 ppm",+
same,growth of the micro-organism,"Candida albicans [3]; MIT 50 ppm, CAG 0 ppm",+
same,growth of the micro-organism,"Candida albicans [3]; MIT 75 ppm, CAG 0 ppm",+
same,growth of the micro-organism,"Candida albicans [3]; MIT 100 ppm, CAG 0 ppm",+
same,growth of the micro-organism,"Candida albicans [3]; MIT 200 ppm, CAG 0 ppm",−
same,QA (MIT): MIC of MIT as sole ingredient,Enterococcus faecalis,75 ppm
same,growth of the micro-organism,"Enterococcus faecalis; MIT 10 ppm, CAG 0 ppm",+
same,growth of the micro-organism,"Enterococcus faecalis; MIT 25 ppm, CAG 0 ppm",+
same,growth of the micro-organism,"Enterococcus faecalis; MIT 37.5 ppm, CAG 0 ppm",+
same,growth of the micro-organism,"Enterococcus faecalis; MIT 50 ppm, CAG 0 ppm",+
same,growth of the micro-organism,"Enterococcus faecalis; MIT 75 ppm, CAG 0 ppm",−
same,QA (MIT): MIC of MIT as sole ingredient,Pseudomonas aeruginosa [4],25 ppm
same,growth of the micro-organism,"Pseudomonas aeruginosa [4]; MIT 10 ppm, CAG 0 ppm",+
same,growth of the micro-organism,"Pseudomonas aeruginosa [4]; MIT 25 ppm, CAG 0 ppm",−
same,growth of the micro-organism,"Pseudomonas aeruginosa [4]; MIT 37.5 ppm, CAG 0 ppm",−
same,growth of the micro-organism,"Pseudomonas aeruginosa [4]; MIT 50 ppm, CAG 0 ppm",−
same,growth of the micro-organism,"Pseudomonas aeruginosa [4]; MIT 75 ppm, CAG 0 ppm",−
"CCCCCCC(O)CO (stereo not drawn) [CAG, caprylyl glycol]",QB (CAG): MIC of CAG as sole ingredient,Staphylococcus aureus [1],1000 ppm
same,growth of the micro-organism,"Staphylococcus aureus [1]; MIT 0 ppm, CAG 500 ppm",+
same,growth of the micro-organism,"Staphylococcus aureus [1]; MIT 0 ppm, CAG 1000 ppm",−
same,growth of the micro-organism,"Staphylococcus aureus [1]; MIT 0 ppm, CAG 2000 ppm",−
same,growth of the micro-organism,"Staphylococcus aureus [1]; MIT 0 ppm, CAG 3000 ppm",−
same,growth of the micro-organism,"Staphylococcus aureus [1]; MIT 0 ppm, CAG 4000 ppm",−
same,QB (CAG): MIC of CAG as sole ingredient,Aspergillus niger [2],2000 ppm
same,growth of the micro-organism,"Aspergillus niger [2]; MIT 0 ppm, CAG 500 ppm",+
same,growth of the micro-organism,"Aspergillus niger [2]; MIT 0 ppm, CAG 1000 ppm",+
same,growth of the micro-organism,"Aspergillus niger [2]; MIT 0 ppm, CAG 2000 ppm",−
same,growth of the micro-organism,"Aspergillus niger [2]; MIT 0 ppm, CAG 3000 ppm",−
same,growth of the micro-organism,"Aspergillus niger [2]; MIT 0 ppm, CAG 4000 ppm",−
same,QB (CAG): MIC of CAG as sole ingredient,Candida albicans [3],3000 ppm
same,growth of the micro-organism,"Candida albicans [3]; MIT 0 ppm, CAG 500 ppm",+
same,growth of the micro-organism,"Candida albicans [3]; MIT 0 ppm, CAG 1000 ppm",+
same,growth of the micro-organism,"Candida albicans [3]; MIT 0 ppm, CAG 2000 ppm",+
same,growth of the micro-organism,"Candida albicans [3]; MIT 0 ppm, CAG 3000 ppm",−
same,growth of the micro-organism,"Candida albicans [3]; MIT 0 ppm, CAG 4000 ppm",−
same,QB (CAG): MIC of CAG as sole ingredient,Enterococcus faecalis,2000 ppm
same,growth of the micro-organism,"Enterococcus faecalis; MIT 0 ppm, CAG 500 ppm",+
same,growth of the micro-organism,"Enterococcus faecalis; MIT 0 ppm, CAG 1000 ppm",+
same,growth of the micro-organism,"Enterococcus faecalis; MIT 0 ppm, CAG 2000 ppm",−
same,growth of the micro-organism,"Enterococcus faecalis; MIT 0 ppm, CAG 3000 ppm",−
same,growth of the micro-organism,"Enterococcus faecalis; MIT 0 ppm, CAG 4000 ppm",−
same,QB (CAG): MIC of CAG as sole ingredient,Pseudomonas aeruginosa [4],4000 ppm
same,growth of the micro-organism,"Pseudomonas aeruginosa [4]; MIT 0 ppm, CAG 500 ppm",+
same,growth of the micro-organism,"Pseudomonas aeruginosa [4]; MIT 0 ppm, CAG 1000 ppm",+
same,growth of the micro-organism,"Pseudomonas aeruginosa [4]; MIT 0 ppm, CAG 2000 ppm",+
same,growth of the micro-organism,"Pseudomonas aeruginosa [4]; MIT 0 ppm, CAG 3000 ppm",+
same,growth of the micro-organism,"Pseudomonas aeruginosa [4]; MIT 0 ppm, CAG 4000 ppm",−
"CCCC(O)CO (stereo not drawn) [1,2 Pentane diol, reference compound]",growth inhibition,Staphylococcus aureus [5]; diol 0.2% by weight,+
same,growth inhibition,Staphylococcus aureus [5]; diol 0.4% by weight,+
same,growth inhibition,Staphylococcus aureus [5]; diol 0.6% by weight,+
same,growth inhibition,Staphylococcus aureus [5]; diol 0.8% by weight,+
same,growth inhibition,Staphylococcus aureus [5]; diol 1.0% by weight,+
same,growth inhibition,Aspergillus Niger [6]; diol 0.2% by weight,+
same,growth inhibition,Aspergillus Niger [6]; diol 0.4% by weight,+
same,growth inhibition,Aspergillus Niger [6]; diol 0.6% by weight,+
same,growth inhibition,Aspergillus Niger [6]; diol 0.8% by weight,+
same,growth inhibition,Aspergillus Niger [6]; diol 1.0% by weight,+
same,growth inhibition,Pseudomonas aeruginosa [7]; diol 0.2% by weight,+
same,growth inhibition,Pseudomonas aeruginosa [7]; diol 0.4% by weight,+
same,growth inhibition,Pseudomonas aeruginosa [7]; diol 0.6% by weight,+
same,growth inhibition,Pseudomonas aeruginosa [7]; diol 0.8% by weight,+
same,growth inhibition,Pseudomonas aeruginosa [7]; diol 1.0% by weight,+
same,growth inhibition,Candida albicans [8]; diol 0.2% by weight,+
same,growth inhibition,Candida albicans [8]; diol 0.4% by weight,+
same,growth inhibition,Candida albicans [8]; diol 0.6% by weight,+
same,growth inhibition,Candida albicans [8]; diol 0.8% by weight,+
same,growth inhibition,Candida albicans [8]; diol 1.0% by weight,+
"CCCCCCC(O)CO (stereo not drawn) [1,2-Octane diol]",growth inhibition,Staphylococcus aureus [5]; diol 0.2% by weight,−
same,growth inhibition,Staphylococcus aureus [5]; diol 0.4% by weight,−
same,growth inhibition,Staphylococcus aureus [5]; diol 0.6% by weight,−
same,growth inhibition,Staphylococcus aureus [5]; diol 0.8% by weight,−
same,growth inhibition,Staphylococcus aureus [5]; diol 1.0% by weight,−
same,growth inhibition,Aspergillus Niger [6]; diol 0.2% by weight,−
same,growth inhibition,Aspergillus Niger [6]; diol 0.4% by weight,−
same,growth inhibition,Aspergillus Niger [6]; diol 0.6% by weight,−
same,growth inhibition,Aspergillus Niger [6]; diol 0.8% by weight,−
same,growth inhibition,Aspergillus Niger [6]; diol 1.0% by weight,−
same,growth inhibition,Pseudomonas aeruginosa [7]; diol 0.2% by weight,+
same,growth inhibition,Pseudomonas aeruginosa [7]; diol 0.4% by weight,−
same,growth inhibition,Pseudomonas aeruginosa [7]; diol 0.6% by weight,−
same,growth inhibition,Pseudomonas aeruginosa [7]; diol 0.8% by weight,−
same,growth inhibition,Pseudomonas aeruginosa [7]; diol 1.0% by weight,−
same,growth inhibition,Candida albicans [8]; diol 0.2% by weight,+
same,growth inhibition,Candida albicans [8]; diol 0.4% by weight,−
same,growth inhibition,Candida albicans [8]; diol 0.6% by weight,−
same,growth inhibition,Candida albicans [8]; diol 0.8% by weight,−
same,growth inhibition,Candida albicans [8]; diol 1.0% by weight,−
